ChEMBL document CHEMBL6177962, “Design, synthesis and biological evaluation of 2-arylbenzo[b]furan-4-vinylcarbonyl derivatives based on Salvianolic acid C as antioxidant neuroprotective agents for the treatment of ischemic stroke” (Eur J Med Chem, 2025)
The source made the active and inactive calls. The calls are words filed in the database; no cut-off is given here.

What was measured:
[1] = tested on: PC-12; test: Cytotoxicity against rat PC12 cells assessed as cell viability at 40 uM incubated for 24 hrs by CCK-8 assay relative to control; format: functional; settings: read-out: Activity
[2] = tested on: PC-12; test: Cytotoxicity against rat PC12 cells assessed as cell viability at 10 uM incubated for 24 hrs by CCK-8 assay relative to control; format: functional; settings: read-out: Activity
[3] = Cytotoxicity against mouse RAW cells assessed as cell viability; format: toxicity, cell-based; set-up: concentration or dose not given beside the values; settings: read-out: Activity
[4] = tested on: PC-12; test: Neuroprotective activity against t-BHP induced oxidative damage in rat PC12 cells model assessed as cell viability at 2.5 to 20 uM incubated for 24 hrs by CCK-8 assay; format: functional, cell-based; settings: dose 2.5-20 µM
[5] = tested on: PC-12; test: Antioxidant activity in t-BHP -induced rat PC12 cells at 2.5 to 20 uM; format: functional, cell-based; settings: dose 2.5-20 µM
[6] = tested on: Rattus norvegicus; test: (§1) Neuroprotective activity against cerebral ischemia-reperfusion injury in MCAO rat model assessed as reduction in infarct area at 10 mg/kg, iv treated after 2 hrs ischemia followed by reperfusion measured after 1 week of post-reperfusion by TTC staining based analysis; format: functional, organism-based; settings: time 1.0 weeks
[7] = tested on: PC-12; test: Neuroprotective activity against t-BHP induced oxidative damage in rat PC12 cells model assessed as reduction in intracellular ROS level at 10 uM incubated for 24 hrs by DCFH-DA probe based flow cytometry analysis; format: functional, cell-based
[8] = tested on: Rattus norvegicus; test: as §1, with “ROS accumulation in cortex” for “infarct area”, “dihydroethidium” for “TTC”, “based fluorescence microscopic” for “based”; format: functional, organism-based; settings: time 1.0 weeks
[9] = tested on: PC-12; test: Neuroprotective activity against t-BHP induced oxidative damage in rat PC12 cells model assessed as reduction in intracellular ROS level at 10 uM incubated for 24 hrs by DCFH-DA probe based analysis; format: functional, cell-based

Row | SMILES | viability at 40 µM [1] [%] | viability at 10 µM [2] [%] | further results
1 | CCCC[C@H](NC(=O)/C=C/c1ccc(OC)c2oc(-c3ccc(C)cc3)cc12)C(=O)OC | 93.5 | 56 | –
2 | COC(=O)[C@H](Cc1c[nH]c2ccccc12)NC(=O)/C=C/c1ccc(OC)c2oc(-c3ccc(OC)c(OC)c3)cc12 | 111 | 57.1 | –
3 | COc1ccc(C(=O)/C=C/c2ccc(OC)c3oc(-c4ccc(C)cc4)cc23)cc1OC | 80.1 | 42.9 | –
4 | COc1ccc(/C=C/C(=O)c2cccc(O)c2)c2cc(-c3ccc(C)cc3)oc12 | 80.6 | 37.7 | viability [3]: < 80%
5 | COC(=O)[C@@H](NC(=O)/C=C/c1ccc(OC)c2oc(-c3ccc(C)cc3)cc12)c1ccccc1 | 99.3 | 74.1 | –
6 | COc1ccc(/C=C/C(=O)NCCc2ccccc2)c2cc(-c3ccc(C)cc3)oc12 | 99.1 | 93.8 | –
7 | COc1ccc(C(=O)/C=C/c2ccc(OC)c3oc(-c4ccc(C)cc4)cc23)cc1O | 69.2 | 14.9 | –
8 | COc1ccc(/C=C/C(=O)c2ccc(N3CCOCC3)cc2)c2cc(-c3ccc(C)cc3)oc12 | 85 | 77.9 | –
9 | COc1ccc(-c2cc3c(/C=C/C(=O)c4cc(OC)c(OC)c(OC)c4)ccc(OC)c3o2)cc1 | 72.9 | 43.7 | viability [3]: < 80%
10 | COc1cc(OC)cc(C(=O)/C=C/c2ccc(OC)c3oc(-c4ccc(C)cc4)cc23)c1 | 92.2 | 76.1 | –
11 | COC(=O)[C@@H]1CCC(=O)N1C(=O)/C=C/c1ccc(OC)c2oc(-c3ccc(C)cc3)cc12 | 95.3 | 91 | –
12 | COc1ccc(-c2cc3c(/C=C/C(=O)NCCc4ccc(O)c(O)c4)ccc(OC)c3o2)cc1OC | 104 | 70.7 | –
13 | COc1ccc(/C=C/C(=O)c2ccc(O)cc2)c2cc(-c3ccc(C)cc3)oc12 | 84.1 | 55.9 | viability [3]: < 80%
14 | COc1ccc(C(=O)/C=C/c2ccc(OC)c3oc(-c4ccc(C)cc4)cc23)c(OC)c1OC | 83.9 | 71.9 | –
15 | COC(=O)[C@@H]1CCCN1C(=O)/C=C/c1ccc(OC)c2oc(-c3ccc(C)cc3)cc12 | 75.5 | 32.3 | –
16 | COc1cccc(C(=O)/C=C/c2ccc(OC)c3oc(-c4ccc(C)cc4)cc23)c1OC | 78.2 | 67.5 | –
17 | CC(C)(C)OO [TERT-BUTYL HYDROPEROXIDE] | – | 52.1 | –
18 | COc1ccc(/C=C/C(=O)NCCc2ccc(O)c(O)c2)c2cc(-c3ccc(C)cc3)oc12 | 103 | 99.3 | Activity [4]: Active; Activity [5]: Active
19 | COc1cc(OC)cc(-c2cc3c(/C=C/C(=O)c4cc(OC)c(OC)c(OC)c4)ccc(OC)c3o2)c1 | 109 | 89.2 | –
20 | COc1ccc(-c2cc3c(/C=C/C(=O)c4ccc(O)c(OC)c4)ccc(OC)c3o2)cc1 | 116 | 77.2 | –
21 | COC(=O)[C@H](Cc1c[nH]c2ccccc12)NC(=O)/C=C/c1ccc(OC)c2oc(-c3ccc(OC)cc3)cc12 | 96 | 94.4 | –
22 | COc1ccc(/C=C/C(=O)c2ccco2)c2cc(-c3ccc(C)cc3)oc12 | 107 | 78.5 | viability [3]: < 80%

Row | SMILES | viability at 40 µM [1] [%] | viability at 10 µM [2] [%] | further results
23 | COC(=O)[C@H](Cc1c[nH]c2ccccc12)NC(=O)/C=C/c1ccc(OC)c2oc(-c3ccc(C)cc3)cc12 | 117 | 66.1 | –
24 | COc1ccc(C(=O)/C=C/c2ccc(OC)c3oc(-c4ccc(C)cc4)cc23)cc1F | 98.8 | 50.8 | –
25 | COc1cc(OC)cc(-c2cc3c(/C=C/C(=O)NCCc4ccc(O)c(O)c4)ccc(OC)c3o2)c1 | 98.7 | 76.7 | viability [3]: < 80%
26 | COc1cccc(C(=O)/C=C/c2ccc(OC)c3oc(-c4ccc(C)cc4)cc23)c1 | 119 | 55.7 | –
27 | COC(=O)[C@@H](NC(=O)/C=C/c1ccc(OC)c2oc(-c3ccc(C)cc3)cc12)c1ccc(O)cc1 | 92 | 69.7 | –
28 | COc1ccc(C(=O)/C=C/c2ccc(OC)c3oc(-c4ccc(C)cc4)cc23)cc1 | 99.5 | 56.8 | –
29 | COc1ccc(-c2cc3c(/C=C/C(=O)c4cc(OC)c(OC)c(OC)c4)ccc(OC)c3o2)cc1OC | 105 | 95.5 | Activity [4]: Active; Activity [5]: Active
30 | COC(=O)[C@H](Cc1c[nH]c2ccccc12)NC(=O)/C=C/c1ccc(OC)c2oc(-c3cc(OC)cc(OC)c3)cc12 | 105 | 79.4 | –
31 | COC(=O)[C@@H](NC(=O)/C=C/c1ccc(OC)c2oc(-c3ccc(C)cc3)cc12)C(C)C | 94.2 | 73.1 | –
32 | CC[C@H](NC(=O)/C=C/c1ccc(OC)c2oc(-c3ccc(C)cc3)cc12)C(=O)OC | 84 | 66.4 | –
33 | COc1cc(C(=O)/C=C/c2ccc(OC)c3oc(-c4ccc(C)cc4)cc23)ccc1O | 72.8 | 36.3 | –
34 | COc1cc(C(=O)/C=C/c2ccc(OC)c3oc(-c4ccc(C)cc4)cc23)ccc1F | 102 | 83.8 | –
35 | COC(=O)CNC(=O)/C=C/c1ccc(OC)c2oc(-c3ccc(C)cc3)cc12 | 93.9 | 68.9 | –
36 | COc1ccc(-c2cc3c(/C=C/C(=O)NCCc4ccc(O)c(O)c4)ccc(OC)c3o2)cc1 | 98.2 | 99.2 | Activity [4]: Active; Activity [5]: Active
37 | COc1cc(C(=O)/C=C/c2ccc(OC)c3oc(-c4ccc(C)cc4)cc23)cc(OC)c1OC | 102 | 51.6 | –
38 | COC(=O)[C@H](CC1CCCCC1)NC(=O)/C=C/c1ccc(OC)c2oc(-c3ccc(C)cc3)cc12 | 96.1 | 82.1 | –
39 | COc1cc(C(=O)/C=C/c2ccc(OC)c3oc(-c4ccc(OC)c(OC)c4)cc23)ccc1O | 93.8 | 12.9 | viability [3]: < 80%
40 | CC1=NN(c2ccccc2)C(=O)C1 | – | – | Activity [6]: Active; Activity [7]: Active; Activity [8]: Active; Activity [9]: Active
41 | COc1cc(C(=O)/C=C/c2ccc(OC)c3oc(-c4ccc(C)cc4)cc23)cc(OC)c1O | 82 | 37.7 | –
42 | COc1ccc(/C=C/C(=O)c2ccc3c(c2)OCO3)c2cc(-c3ccc(C)cc3)oc12 | 95 | 58.1 | –
43 | COc1cc(OC)cc(-c2cc3c(/C=C/C(=O)c4ccc(O)c(OC)c4)ccc(OC)c3o2)c1 | 94.6 | 45.6 | –
